From ChEMBL document CHEMBL2062405, “Alkaloids from the root of Isatis indigotica” (J Nat Prod, 2012)
Active and inactive are the calls of the source. No cut-off for these calls is given here.

What was measured:
[1] = system: Influenza A virus; test: Antiviral activity against influenza A virus A/Hanfang/359/95 (H3N2) assessed as inhibition of virus-induced cytopathic effect in cell-based assay; assay type: functional, organism-based
[2] = system: Human immunodeficiency virus 1; test: Antiviral activity against HIV1 infected in 293T cells cotransfected with VSV-G at 10 uM after 48 hrs by ELISA; assay type: functional, organism-based
[3] = system: Human alphaherpesvirus 1; test: Antiviral activity against Herpes simplex virus 1 at 10 uM; assay type: functional, organism-based
[4] = system: A549; test: Cytotoxicity against human A549 cells at 10 uM after 96 hrs by MTT assay; assay type: functional, cell-based
[5] = system: BGC-823; test: Cytotoxicity against human BGC823 cells at 10 uM after 96 hrs by MTT assay; assay type: functional, cell-based
[6] = system: MCF7; test: Cytotoxicity against human MCF7 cells at 10 uM after 96 hrs by MTT assay; assay type: functional, cell-based
[7] = system: Bel-7402; test: Cytotoxicity against human Bel7402 cells at 10 uM after 96 hrs by MTT assay; assay type: functional, cell-based
[8] = system: KETR3; test: Cytotoxicity against human Ketr3 cells at 10 uM after 96 hrs by MTT assay; assay type: functional, cell-based
[9] = system: HCT-8; test: Cytotoxicity against human HCT8 cells at 10 uM after 96 hrs by MTT assay; assay type: functional, cell-based
[10] = Hepatoprotective activity in rat WB-F344 cells assessed as inhibition of DL-Galactosamine-induced toxicity at 10 uM incubated for 1 hr prior to DL-Galactosamine-challenge measured after 24 hrs by MTT assay; assay type: functional
[11] = system: Coxsackievirus B3; test: Antiviral activity against Coxsackievirus B3 assessed as inhibition of viral replication; assay type: functional, organism-based; conditions: Enterovirus B

For `COc1ccc([C@@H](C)c2ccc(O)cc2)c2[nH]cc(CC#N)c12`, the IC50 [1] was 3.7 µM, the Activity [2] was “inactive” and the Activity [3] was “inactive”. For the same molecule, the Activity [4] was “inactive”, the Activity [5] was “inactive” and the Activity [6] was “inactive”. The Activity [7] was “inactive”, the Activity [8] was “inactive” and the Activity [9] was “inactive”.
With `COc1cccc2c1[C@@](O)(CC#N)C(=O)N2` the inhibition at 10 µM [10] was 47%, the Activity [2] was “inactive” and the Activity [3] was “inactive”. The Activity [4] was “inactive”, the Activity [5] was “inactive” and the Activity [6] was “inactive”. For the same molecule, the Activity [7] was “inactive”, the Activity [8] was “inactive” and the Activity [9] was “inactive”.
With `O=C1/C(=C/c2c[nH]c3ccccc23)Nc2ccccc21` the inhibition at 10 µM [10] was 44%, the Activity [2] was “inactive” and the Activity [3] was “inactive”. For the same molecule, the Activity [4] was “inactive”, the Activity [5] was “inactive” and the Activity [6] was “inactive”. The Activity [7] was “inactive”, the Activity [8] was “inactive” and the Activity [9] was “inactive”.
`Cc1cc(CCCOc2c(C)cc(-c3noc(C(F)(F)F)n3)cc2C)on1` [PLECONARIL] showed an IC50 [11] of 0.41 µM.
In the case of `COc1cccc2[nH]cc(CC#N)c12` [ARVELEXIN], the IC50 [1] is reported as 3.7 µM, the Activity [2] is reported as “inactive” and the Activity [3] is reported as “inactive”. For the same molecule, the Activity [4] was “inactive”, the Activity [5] was “inactive” and the Activity [6] was “inactive”. The Activity [7] was “inactive”, the Activity [8] was “inactive” and the Activity [9] was “inactive”.
With `CCOC(=O)C1=C[C@@H](OC(CC)CC)[C@H](NC(C)=O)[C@@H](N)C1` [OSELTAMIVIR] the IC50 [1] was 1.23 µM.
For `NC(=O)CC1C(=O)Nc2ccccc21` (racemic), the IC50 [11] was 6.87 µM, the Activity [2] was “inactive” and the Activity [3] was “inactive”. For the same molecule, the Activity [4] was “inactive”, the Activity [5] was “inactive” and the Activity [6] was “inactive”. The Activity [7] was “inactive”, the Activity [8] was “inactive” and the Activity [9] was “inactive”.
In the case of `NC(=O)[C@@H]1CC(=O)Nc2ccccc21`, the inhibition at 10 µM [10] is reported as 45%, the Activity [2] is reported as “inactive” and the Activity [3] is reported as “inactive”. For the same molecule, the Activity [4] was “inactive”, the Activity [5] was “inactive” and the Activity [6] was “inactive”. The Activity [7] was “inactive”, the Activity [8] was “inactive” and the Activity [9] was “inactive”.
With `COc1ccc(C(C#N)c2c[nH]c3ccccc23)c2[nH]cc(CC#N)c12` (single isomer, unassigned) the IC50 [1] was 3.7 µM, the Activity [2] was “inactive” and the Activity [3] was “inactive”. For the same molecule, the Activity [4] was “inactive”, the Activity [5] was “inactive” and the Activity [6] was “inactive”. The Activity [7] was “inactive”, the Activity [8] was “inactive” and the Activity [9] was “inactive”.
For `N#CC[C@H]1C(=O)Nc2cccc(O)c21`, the inhibition at 10 µM [10] was 46%, the Activity [2] was “inactive” and the Activity [3] was “inactive”. The Activity [4] was “inactive”, the Activity [5] was “inactive” and the Activity [6] was “inactive”. For the same molecule, the Activity [7] was “inactive”, the Activity [8] was “inactive” and the Activity [9] was “inactive”.
In the case of `COc1cccc2[nH]cc(C(C#N)c3ccc(OC)c4c(CC#N)c[nH]c34)c12` (single isomer, unassigned), the IC50 [1] is reported as 3.7 µM, the Activity [2] is reported as “inactive” and the Activity [3] is reported as “inactive”. For the same molecule, the Activity [4] was “inactive”, the Activity [5] was “inactive” and the Activity [6] was “inactive”. The Activity [7] was “inactive”, the Activity [8] was “inactive” and the Activity [9] was “inactive”.
